Results published in patent US9718790B2, “Triazine derivative and pharmaceutical composition having an analgesic activity comprising the same” (SHIONOGI & CO., LTD., priority 2010, dated 2017).

Molecular target: human P2X3 receptor (Homo sapiens (Human), UniProt P56373)
Assay: Evaluation of human P2X3 receptor inhibitory activity (Fluo-3 calcium fluorescence, FDSS 3000, ATP stimulation);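 note: stimulus was 50 nM ATP with fluorescence followed for 3 min, and the response per well was peak post-ATP fluorescence divided by the reading at measurement start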
Type: cell-based
Conditions: C6BU-1 cells stably expressing human P2X3 receptor

human P2X3 receptor, sequence (P56373 whole entry): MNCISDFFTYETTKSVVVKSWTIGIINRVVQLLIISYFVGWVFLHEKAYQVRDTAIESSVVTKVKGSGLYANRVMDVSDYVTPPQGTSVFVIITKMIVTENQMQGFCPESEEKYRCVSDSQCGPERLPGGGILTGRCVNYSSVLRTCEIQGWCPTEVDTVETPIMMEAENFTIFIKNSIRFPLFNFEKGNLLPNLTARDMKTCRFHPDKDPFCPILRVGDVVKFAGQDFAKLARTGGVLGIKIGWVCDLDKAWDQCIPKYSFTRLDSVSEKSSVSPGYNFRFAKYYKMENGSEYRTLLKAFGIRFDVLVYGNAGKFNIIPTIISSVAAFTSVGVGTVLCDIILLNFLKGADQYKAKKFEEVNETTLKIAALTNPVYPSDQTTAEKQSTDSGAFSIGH

Row | Compound | IC50
1 | Cc1ccc(Cn2c(=O)n(C[C@H](C)C(=O)O)c(=O)[nH]/c2=N\c2ccc(Oc3cccnc3C)cc2)cc1 [Compound I-1231] | 36 nM
2 | COC(=O)[C@@H](C)Cn1c(=O)[nH]/c(=N\c2ccc(N3CCCCCC3)cc2)n(Cc2ccc(Cl)cc2)c1=O [Compound I-1233] | 325 nM
3 | COC(=O)[C@@H](C)Cn1c(=O)[nH]/c(=N\c2ccc(N3CCCCCC3)cc2)n(Cc2ccc(C)cc2)c1=O [Compound I-1234] | 230 nM
4 | C[C@@H](Cn1c(=O)[nH]/c(=N\c2ccc(N3CCCCCC3)cc2)n(Cc2ccc(Cl)cc2)c1=O)C(=O)O [Compound I-1235] | 214 nM
5 | COC(=O)C(C)(C)Cn1c(=O)[nH]/c(=N\c2ccc(OCC3CC3)cc2)n(Cc2ccc(Cl)cc2)c1=O [Compound I-1236] | 13 nM
6 | Cc1ccc(Cn2c(=O)n(C[C@H](C)C(=O)O)c(=O)[nH]/c2=N\c2ccc(N3CCCCCC3)cc2)cc1 [Compound I-1237] | 183 nM
7 | CCOC(=O)CCCn1c(=O)[nH]/c(=N\c2ccc(Oc3ccncc3)cc2)n(Cc2ccc(C)cc2)c1=O [Compound I-1238] | 2 nM
8 | CCOC(=O)CCCn1c(=O)[nH]/c(=N\c2ccc(O)cc2)n(Cc2ccc(C)cc2)c1=O [Compound I-1239] | 732 nM
9 | COC(=O)[C@@H](C)Cn1c(=O)[nH]/c(=N\c2ccc(Oc3cc(C)nc(C)c3)cc2)n(Cc2ccc(C)cc2)c1=O [Compound I-1240] | 18 nM
10 | COC(=O)[C@@H](C)Cn1c(=O)[nH]/c(=N\c2ccc(Cc3ccncc3)cc2)n(Cc2ccc(C)cc2)c1=O [Compound I-1241] | 108 nM
11 | COC(=O)C(C)(C)Cn1c(=O)[nH]/c(=N\c2ccc(OCC3CC3)cc2)n(Cc2ccc(C)cc2)c1=O [Compound I-1242] | 15 nM
12 | Cc1ccc(Cn2c(=O)n(CCCC(=O)O)c(=O)[nH]/c2=N\c2ccc(Oc3ccncc3)cc2)cc1 [Compound I-1243] | 12 nM
13 | COc1cc(/N=c2\[nH]c(=O)n(C[C@H](C)C(=O)O)c(=O)n2Cc2ccc(C)cc2)ccc1Br [Compound I-1244] | 473 nM
14 | COC(=O)CCCn1c(=O)[nH]/c(=N\c2ccc(Oc3ccncc3)cc2)n(Cc2ccc(Cl)cc2)c1=O [Compound I-1245] | 3 nM
15 | CCOC(=O)CCn1c(=O)[nH]/c(=N\c2ccc(OC(C)C)c(OC)c2)n(Cc2ccc(C)cc2)c1=O [Compound I-1246] | 6 nM
16 | COC(=O)[C@@H](C)Cn1c(=O)[nH]/c(=N\c2ccc(CC(C)C)c(OC)c2)n(Cc2ccc(Cl)cc2)c1=O [Compound I-1247] | 28 nM
17 | CCOC(=O)CCn1c(=O)[nH]/c(=N\c2ccc(OC(C)C)c(OC)c2)n(Cc2ccc(Cl)cc2)c1=O [Compound I-1248] | 6 nM
18 | COC(=O)[C@@H](C)Cn1c(=O)[nH]/c(=N\c2ccc(CC(C)C)c(OC)c2)n(Cc2ccc(C)cc2)c1=O [Compound I-1249] | 21 nM
19 | CCCc1ccc(/N=c2\[nH]c(=O)n(CCC(=O)OCC)c(=O)n2Cc2ccc(Cl)cc2)cc1C [Compound I-1250] | 54 nM
20 | CCOC(=O)CCn1c(=O)[nH]/c(=N\c2ccc(CC(C)C)c(C)c2)n(Cc2ccc(Cl)cc2)c1=O [Compound I-1251] | 17 nM
21 | COC(=O)[C@@H](C)Cn1c(=O)[nH]/c(=N\c2ccc(CC(C)C)c(F)c2)n(Cc2ccc(C)cc2)c1=O [Compound I-1252] | 23 nM
22 | CCCc1ccc(/N=c2\[nH]c(=O)n(CCC(=O)O)c(=O)n2Cc2ccc(Cl)cc2)cc1C [Compound I-1253] | 281 nM
23 | COC(=O)[C@@H](C)Cn1c(=O)[nH]/c(=N\c2ccc(CC(C)C)c(F)c2)n(Cc2ccc(Cl)cc2)c1=O [Compound I-1254] | 45 nM
24 | Cc1cc(/N=c2\[nH]c(=O)n(CCC(=O)O)c(=O)n2Cc2ccc(Cl)cc2)ccc1CC(C)C [Compound I-1255] | 48 nM

Row | Compound | IC50
25 | Cc1ccc(Cn2c(=O)n(C[C@H](C)C(=O)O)c(=O)[nH]/c2=N\c2ccc(CC(C)C)c(F)c2)cc1 [Compound I-1256] | 18 nM
26 | CC(C)Cc1ccc(/N=c2\[nH]c(=O)n(C[C@H](C)C(=O)O)c(=O)n2Cc2ccc(Cl)cc2)cc1F [Compound I-1257] | 9 nM
27 | COC(=O)C(C)(C)Cn1c(=O)[nH]/c(=N\c2cccc(C(F)(F)F)c2)n(Cc2ccc(C)cc2)c1=O [Compound I-1258] | 8 nM
28 | O=C(O)CCCn1c(=O)[nH]/c(=N\c2ccc(Oc3ccncc3)cc2)n(Cc2ccc(Cl)cc2)c1=O [Compound I-1259] | 11 nM
29 | Cc1ccc(Cn2c(=O)n(C[C@H](C)C(=O)O)c(=O)[nH]/c2=N\c2ccc(Oc3cc(C)nc(C)c3)cc2)cc1 [Compound I-1260] | 31 nM
30 | COc1cc(/N=c2\[nH]c(=O)n(C[C@H](C)C(=O)O)c(=O)n2Cc2ccc(C)cc2)ccc1CC(C)C [Compound I-1261] | 18 nM
31 | Cc1ccc(Cn2c(=O)n(C[C@H](C)C(=O)O)c(=O)[nH]/c2=N\c2ccc(Cc3ccncc3)cc2)cc1 [Compound I-1262] | 163 nM
32 | CC(C)(Cn1c(=O)[nH]/c(=N\c2ccc(OCC3CC3)cc2)n(Cc2ccc(Cl)cc2)c1=O)C(=O)O [Compound I-1263] | 25 nM
33 | COc1cc(/N=c2\[nH]c(=O)n(CCC(=O)O)c(=O)n2Cc2ccc(C)cc2)ccc1OC(C)C [Compound I-1264] | 31 nM
34 | COc1cc(/N=c2\[nH]c(=O)n(CC(C)(C)C(=O)O)c(=O)n2Cc2ccc(Cl)cc2)ccc1OC(C)C [Compound I-1265] | 22 nM
35 | CCCc1ccc(/N=c2\[nH]c(=O)n(C[C@H](C)C(=O)O)c(=O)n2Cc2ccc(C)cc2)cc1Cl [Compound I-1267] | 9 nM
36 | Cc1ccc(Cn2c(=O)n(CC(C)(C)C(=O)O)c(=O)[nH]/c2=N\c2ccc(OCC3CC3)cc2)cc1 [Compound I-1268] | 52 nM
37 | Cc1ccc(Cn2c(=O)n(C[C@H](C)C(=O)O)c(=O)[nH]/c2=N\c2ccc(Oc3ccnc(C)c3)cc2)cc1 [Compound I-1269] | 8 nM
38 | COc1cc(/N=c2\[nH]c(=O)n(C[C@H](C)C(=O)O)c(=O)n2Cc2ccc(Cl)cc2)ccc1CC(C)C [Compound I-1270] | 12 nM
39 | Cc1ccc(Cn2c(=O)n(CC(C)(C)C(=O)O)c(=O)[nH]/c2=N\c2cccc(C(F)(F)F)c2)cc1 [Compound I-1271] | 32 nM
40 | COC(=O)C(C)(C)Cn1c(=O)[nH]/c(=N\c2ccc(OC(C)C)c(OC)c2)n(Cc2ccc(C)cc2)c1=O [Compound I-1272] | 7 nM
41 | COC(=O)C(C)(C)Cn1c(=O)[nH]/c(=N\c2ccc(OC(C)C)c(OC)c2)n(Cc2ccc(Cl)cc2)c1=O [Compound I-1273] | 7 nM
42 | COC(=O)[C@@H](C)Cn1c(=O)[nH]/c(=N\c2ccc(Oc3ccnc(C)c3)cc2)n(Cc2ccc(C)cc2)c1=O [Compound I-1274] | 6 nM
43 | COC(=O)[C@@H](C)Cn1c(=O)[nH]/c(=N\c2ccc3nc(C)ccc3c2)n(Cc2ccc(C)cc2)c1=O [Compound I-1275] | 6 nM
44 | COC(=O)[C@@H](C)Cn1c(=O)[nH]/c(=N\c2ccc3nc(C)oc3c2)n(Cc2ccc(C)cc2)c1=O [Compound I-1276] | 78 nM
45 | CCCc1ccc(/N=c2\[nH]c(=O)n(C[C@H](C)C(=O)OC)c(=O)n2Cc2ccc(C)cc2)cc1Cl [Compound I-1277] | 15 nM
46 | Cc1ccc(Cn2c(=O)n(C[C@H](C)C(=O)O)c(=O)[nH]/c2=N\c2ccc3nc(C)ccc3c2)cc1 [Compound I-1278] | 33 nM
47 | Cc1ccc(Cn2c(=O)n(C[C@H](C)C(=O)O)c(=O)[nH]/c2=N\c2ccc3nc(C)oc3c2)cc1 [Compound I-1279] | 158 nM
